Experiment: molar heat capacity at constant volume
Conditions: Fluid (supercritical or subcritical phases), Vacuum adiabatic calorimetry

CC(C)O [propan-2-ol]
Conditions | molar heat capacity at constant volume [J/K/mol]
509.12 K, Mass density=288.99 kg/m3 | 208.89
509.12 K, Mass density=293.3 kg/m3 | 205.89
509.12 K, Mass density=324.5 kg/m3 | 193.27
509.13 K, Mass density=255.8 kg/m3 | 235.45
509.21 K, Mass density=234.3 kg/m3 | 205.65
509.21 K, Mass density=266.3 kg/m3 | 238.7
509.21 K, Mass density=274 kg/m3 | 233.71
509.21 K, Mass density=281.9 kg/m3 | 212.8
509.22 K, Mass density=293.3 kg/m3 | 199.52
509.31 K, Mass density=234.3 kg/m3 | 202.04
509.31 K, Mass density=255.8 kg/m3 | 218.33
509.31 K, Mass density=266.3 kg/m3 | 229.68
509.31 K, Mass density=274 kg/m3 | 224.45
509.31 K, Mass density=281.9 kg/m3 | 208.17
509.31 K, Mass density=293.3 kg/m3 | 198.91
509.35 K, Mass density=329.2 kg/m3 | 179.56
509.4 K, Mass density=234.3 kg/m3 | 198.61
509.4 K, Mass density=255.8 kg/m3 | 215.14
509.4 K, Mass density=274 kg/m3 | 219.83
509.41 K, Mass density=281.9 kg/m3 | 208.71
509.41 K, Mass density=293.3 kg/m3 | 198.91
509.45 K, Mass density=329.2 kg/m3 | 180.16
509.49 K, Mass density=234.3 kg/m3 | 198.97
509.49 K, Mass density=255.8 kg/m3 | 213.4
509.49 K, Mass density=266.3 kg/m3 | 223.31
509.49 K, Mass density=274 kg/m3 | 219.83
509.49 K, Mass density=281.9 kg/m3 | 204.98
509.55 K, Mass density=329.2 kg/m3 | 178.84
509.59 K, Mass density=234.3 kg/m3 | 196.21
509.59 K, Mass density=255.8 kg/m3 | 210.09
509.59 K, Mass density=266.3 kg/m3 | 219.59
509.59 K, Mass density=274 kg/m3 | 215.2
509.59 K, Mass density=324.5 kg/m3 | 183.83
509.64 K, Mass density=329.2 kg/m3 | 179.98
509.68 K, Mass density=234.3 kg/m3 | 196.87
509.68 K, Mass density=255.8 kg/m3 | 209.01
509.68 K, Mass density=266.3 kg/m3 | 217
509.68 K, Mass density=274 kg/m3 | 213.04
509.68 K, Mass density=324.5 kg/m3 | 191.16
509.77 K, Mass density=234.3 kg/m3 | 196.09
509.77 K, Mass density=255.8 kg/m3 | 206.37
509.77 K, Mass density=266.3 kg/m3 | 209.67
509.77 K, Mass density=274 kg/m3 | 213.04
509.77 K, Mass density=324.5 kg/m3 | 189.06
509.79 K, Mass density=329.2 kg/m3 | 177.46
509.86 K, Mass density=234.3 kg/m3 | 195.79
509.86 K, Mass density=255.8 kg/m3 | 204.2
509.86 K, Mass density=266.3 kg/m3 | 209.67
509.86 K, Mass density=274 kg/m3 | 208.41
509.86 K, Mass density=293.3 kg/m3 | 194.17
509.87 K, Mass density=324.5 kg/m3 | 183.23
509.96 K, Mass density=255.8 kg/m3 | 202.1
509.96 K, Mass density=266.3 kg/m3 | 209.67
509.96 K, Mass density=274 kg/m3 | 204.8
509.96 K, Mass density=281.9 kg/m3 | 202.4
509.96 K, Mass density=293.3 kg/m3 | 192.18
509.96 K, Mass density=324.5 kg/m3 | 187.5
509.99 K, Mass density=329.2 kg/m3 | 177.28
510.05 K, Mass density=255.8 kg/m3 | 200
510.05 K, Mass density=266.3 kg/m3 | 209.73
510.05 K, Mass density=274 kg/m3 | 203.84
510.05 K, Mass density=281.9 kg/m3 | 206.97
510.05 K, Mass density=293.3 kg/m3 | 195.37
510.05 K, Mass density=324.5 kg/m3 | 181.31
510.05 K, Mass density=343.1 kg/m3 | 174.7
510.14 K, Mass density=255.8 kg/m3 | 198.91
510.14 K, Mass density=266.3 kg/m3 | 211.53
510.14 K, Mass density=274 kg/m3 | 203.36
510.14 K, Mass density=281.9 kg/m3 | 197.95
510.14 K, Mass density=293.3 kg/m3 | 191.4
510.14 K, Mass density=324.5 kg/m3 | 187.92
510.14 K, Mass density=329.2 kg/m3 | 178.12
510.14 K, Mass density=343.1 kg/m3 | 178.42
510.23 K, Mass density=329.2 kg/m3 | 177.94
510.24 K, Mass density=274 kg/m3 | 204.02
510.24 K, Mass density=281.9 kg/m3 | 197.95
510.24 K, Mass density=293.3 kg/m3 | 198.43
510.24 K, Mass density=324.5 kg/m3 | 181.85
510.24 K, Mass density=343.1 kg/m3 | 185.87
510.33 K, Mass density=274 kg/m3 | 202.52
510.33 K, Mass density=281.9 kg/m3 | 193.45
510.33 K, Mass density=293.3 kg/m3 | 191.1
510.33 K, Mass density=324.5 kg/m3 | 181.73
510.33 K, Mass density=329.2 kg/m3 | 176.68
510.33 K, Mass density=343.1 kg/m3 | 182.15
510.42 K, Mass density=274 kg/m3 | 204.68
510.42 K, Mass density=281.9 kg/m3 | 198.01
510.42 K, Mass density=293.3 kg/m3 | 187.02
510.42 K, Mass density=324.5 kg/m3 | 183.05
510.42 K, Mass density=343.1 kg/m3 | 178.48
510.48 K, Mass density=329.2 kg/m3 | 178.6
510.51 K, Mass density=281.9 kg/m3 | 193.69

Reference: the NIST ThermoML archive (doi:10.1016/j.jct.2019.03.023)
